In patent US12486287B2, “Solid forms of a promoter of spinogenesis” (Spinogenix, Inc., priority 2019, dated 2025):
≈ marks a conversion by molar mass, not a printed value.

Assays:
Format in all cases: physicochemical
[1] = Approximate solubility in single solvents at RT; settings: thermodynamic from solid, room temperature
Experimental: Approximate solubility of Compound I was determined in 20 single solvents at RT. Approximately 2 mg of powder sample was added into a 3-mL glass vial. Corresponding solvents were added stepwise (50 μL→100 μL→300 μL→1000 μL) into each vial until powder solids were completely dissolved visually or a total volume of 1 mL solvent was added. Approximate solubility values were calculated based on sample mass, solvent volume, and experimental observation. Results summarized in Table 3-1 were used to guide subsequent solvent selection in the design of polymorph screening experiments.

[2] = Solid state stability evaluation (XRPD, PLM, HPLC purity after storage); settings: for HPLC purity decrease after storage / Form change after storage (XRPD): 30° C./65% RH and 40° C./75% RH, open and closed; for Form change after storage (XRPD): up to 4 weeks; for Purity (Area %): HPLC; for Form Change: XRPD
Experimental: Agilent 1260 HPLC with VWD detector was utilized and detailed chromatographic conditions for purity analysis are listed ill Table 1-4.
The solid state stability of Compound I was evaluated under conditions of 30° C./65% RH (open dish and closed container) and 40° C./75% RH (open dish and closed container) for 4 weeks. The detailed procedures utilized for stability evaluation are listed: 1) Weighed about 10 mg of Compound I starting material into 3-mL glass vials; 2) For the open dish conditions, covered the vials with Parafilm® and poked 6 holes. For the closed conditions, sealed the vials with caps and kept the vials in the corresponding conditions, respectively; For the condition of 40° C./75% RH, placed the vials in the stability chamber of 40° C./75% RH; For the condition of 30° C./65% RH, placed the vials in the airtight atmosphere generated by saturated aqueous potassium iodide solution in 30° C. bio-chemical; 4) Samples taken for XRPD, PLM, and HPLC purity after 3 days, 1 week, 2 weeks and 4 weeks.
Solid state stability evaluation of Compound I Form I starting material was performed under conditions of 30° C./65% RH (closed and open) and 40° C./75% RH (closed and open). X-ray powder diffraction (XRPD), polarizing microscope (PLM) and HPLC purity were characterized at 4 sampling points (3 days, 1 week, 2 weeks, 4 weeks).
For the single crystal structure determination, 83 single crystal growth experiments were performed by different methods including slow evaporation, liquid vapor diffusion, slow cooling, heating-cooling and solvent-thermal synthesis. The stability evaluation experiments in 40° C./75% RH condition were performed using stability chamber, while the 30° C./65% RH condition was set up by saturated aqueous potassium iodide solution in 30° C. bio-chemical incubator.

[3] = Dynamic vapor sorption (DVS)
Experimental: DVS was measured via a SMS (Surface Measurement Systems) DVS Intrinsic. The relative humidity at 25° C. were calibrated against deliquescence point of LiCl, Mg(NO3)2 and KCl.
Compound I starting material was the delivered sample. The starting material was characterized by XRPD, thermo-gravimetric analysis (TGA), differential scanning calorimetry (DSC), PLM and dynamic vapor sorption (DVS).

[4] = Stability / interconversion of crystal forms (XRPD)
Experimental: Compound I was subjected to various crystallization conditions, including solid vapor diffusion, anti-solvent addition, liquid vapor diffusion, slow cooling, slurry conversion at various temperatures, temperature cycling, and slow evaporation. Crystalline forms of Compound I were analyzed by X-ray powder diffraction (XRPD), differential scanning calorimetry (DSC) and thermogravimetric analysis (TGA), while metastable forms were analyzed by XRPD. XRPD was performed with a Panalytical X'Pert3 Powder XRPD with a Si zero-background holder. The 2θ position was calibrated against a Panalytical Si reference standard disc.
Forms II and III only existed in the wet state and no solid was isolated for thermal analyses. Form V solids were obtained, however, Form V changed to Form I at around 50° C. upon drying in a vacuum oven. A summary of isolated forms and conditions is in Table 1-5 and Table 1-6.

[5] = 30° C./65% RH, closed container, 1 week
[6] = 30° C./65% RH, closed container, 2 weeks
[7] = 30° C./65% RH, closed container, 4 weeks
[8] = 30° C./65% RH, closed container, 3 days
[9] = 30° C./65% RH, open dish, 1 week
[10] = 30° C./65% RH, open dish, 2 weeks
[11] = 30° C./65% RH, open dish, 4 weeks
[12] = 30° C./65% RH, open dish, 3 days
[13] = 40° C./75% RH, closed container, 1 week
[14] = 40° C./75% RH, closed container, 2 weeks
[15] = 40° C./75% RH, closed container, 4 weeks
[16] = 40° C./75% RH, closed container, 3 days
[17] = 40° C./75% RH, open dish, 1 week
[18] = 40° C./75% RH, open dish, 2 weeks
[19] = 40° C./75% RH, open dish, 4 weeks
[20] = 40° C./75% RH, open dish, 3 days

SMILES: OCCOCCOCCOCCOc1ccc(-c2nc3ccccc3s2)cc1 [Compound I, 2-(2-(2-(2-(4-(benzo[d]thiazol-2-yl)phenoxy)ethoxy)ethoxy)ethoxy)ethan-1-ol]
- solubility ([1]; organic solvent or mixture, 1,4-dioxane): > 32 mg/mL
- solubility ([1]; organic solvent or mixture, 2-MeTHF): 20 to 40 mg/mL (≈ 49.6 to 99.1 mM)
- solubility ([1]; organic solvent or mixture, Acetone): 6 to 18 mg/mL (≈ 14.9 to 44.6 mM)
- solubility ([1]; organic solvent or mixture, Acetonitrile): 8 to 24 mg/mL (≈ 19.8 to 59.5 mM)
- solubility ([1]; organic solvent or mixture, CPME): < 2.6 mg/mL
- solubility ([1]; organic solvent or mixture, DCM): > 38 mg/mL
- solubility ([1]; organic solvent or mixture, DMF): > 44 mg/mL
- solubility ([1]; organic solvent or mixture, DMSO): 18 to 36 mg/mL (≈ 44.6 to 89.2 mM)
- solubility ([1]; organic solvent or mixture, EtOAc): 20 to 40 mg/mL (≈ 49.6 to 99.1 mM)
- solubility ([1]; organic solvent or mixture, EtOH): 7.3 to 22 mg/mL (≈ 18.1 to 54.5 mM)
- solubility ([1]; organic solvent or mixture, Heptane): < 2.2 mg/mL
- solubility ([1]; organic solvent or mixture, IPA): < 1.9 mg/mL
- solubility ([1]; organic solvent or mixture, IPAc): 1.7 to 5.7 mg/mL (≈ 4.21 to 14.1 mM)
- solubility ([1]; organic solvent or mixture, MEK): 18 to 36 mg/mL (≈ 44.6 to 89.2 mM)
- solubility ([1]; organic solvent or mixture, MIBK): 2.5 to 8.3 mg/mL (≈ 6.2 to 20.6 mM)
- solubility ([1]; organic solvent or mixture, MTBE): < 2 mg/mL
- solubility ([1]; organic solvent or mixture, MeOH): 21 to 42 mg/mL (≈ 52 to 104 mM)
- solubility ([1]; organic solvent or mixture, THF): > 36 mg/mL
- solubility ([1]; organic solvent or mixture, Toluene): 6 to 18 mg/mL (≈ 14.9 to 44.6 mM)
- solubility ([1]; water, H2O): < 1.8 mg/mL
- HPLC purity decrease after storage ([2]; 4 weeks): no significant HPLC purity decrease was observed
- Form change after storage (XRPD) [2]: no form change was observed

SMILES: OCCOCCOCCOCCOc1ccc(-c2nc3ccccc3s2)cc1 [Compound I Form I, 2-(2-(2-(2-(4-(benzo[d]thiazol-2-yl)phenoxy)ethoxy)ethoxy)ethoxy)ethan-1-ol]
- Form change after DVS test (XRPD) ([3]; 25° C., 0% RH-95% RH-0% RH): No form change was observed
- Water uptake (DVS) ([3]; 25° C./80% RH): 0.64%
- Water uptake (DVS) ([3]; 25° C./95% RH): 21.43%
- HPLC purity decrease after storage ([2]; 4 weeks): No form change and significant HPLC purity decrease were observed
- Form change after storage (XRPD) [2]: No form change
- Purity/Initial (%) [2, 5]: 100.0%
- Purity (Area %) [2, 5]: 99.66 Area %
- Form Change [2, 5]: No
- Purity/Initial (%) [2, 6]: 100.0%
- Purity (Area %) [2, 6]: 99.64 Area %
- Form Change [2, 6]: No
- Purity/Initial (%) [2, 7]: 100.0%
- Purity (Area %) [2, 7]: 99.66 Area %
- Form Change [2, 7]: No
- Purity/Initial (%) [2, 8]: 100.0%
- Purity (Area %) [2, 8]: 99.68 Area %
- Form Change [2, 8]: No
- Purity/Initial (%) [2, 9]: 100.0%
- Purity (Area %) [2, 9]: 99.66 Area %
- Form Change [2, 9]: No
- Purity/Initial (%) [2, 10]: 100.0%
- Purity (Area %) [2, 10]: 99.63 Area %
- Form Change [2, 10]: No
- Purity/Initial (%) [2, 11]: 100.0%
- Purity (Area %) [2, 11]: 99.66 Area %
- Form Change [2, 11]: No
- Purity/Initial (%) [2, 12]: 100.0%
- Purity (Area %) [2, 12]: 99.69 Area %
- Form Change [2, 12]: No
- Purity/Initial (%) [2, 13]: 100.0%
- Purity (Area %) [2, 13]: 99.66 Area %
- Form Change [2, 13]: No
- Purity/Initial (%) [2, 14]: 99.8%
- Purity (Area %) [2, 14]: 99.45 Area %
- Form Change [2, 14]: No
- Purity/Initial (%) [2, 15]: 100.0%
- Purity (Area %) [2, 15]: 99.65 Area %
- Form Change [2, 15]: No
- Purity/Initial (%) [2, 16]: 100.1%
- Purity (Area %) [2, 16]: 99.76 Area %
- Form Change [2, 16]: No
- Purity/Initial (%) [2, 17]: 100.0%
- Purity (Area %) [2, 17]: 99.66 Area %
- Form Change [2, 17]: No
- Purity/Initial (%) [2, 18]: 100.0%
- Purity (Area %) [2, 18]: 99.63 Area %
- Form Change [2, 18]: No
- Purity/Initial (%) [2, 19]: 100.0%
- Purity (Area %) [2, 19]: 99.65 Area %
- Form Change [2, 19]: No
- Purity/Initial (%) [2, 20]: 99.9%
- Purity (Area %) [2, 20]: 99.61 Area %
- Form Change [2, 20]: No

SMILES: OCCOCCOCCOCCOc1ccc(-c2nc3ccccc3s2)cc1 [Compound I Form II, 2-(2-(2-(2-(4-(benzo[d]thiazol-2-yl)phenoxy)ethoxy)ethoxy)ethoxy)ethan-1-ol]
- Stability of crystal form (conversion on storage, air exposure or drying) ([4]; listed as Form II): changed to a mixture of Form II and C or a mixture of Form III and Form V upon storage

SMILES: OCCOCCOCCOCCOc1ccc(-c2nc3ccccc3s2)cc1 [Compound I Form V, 2-(2-(2-(2-(4-(benzo[d]thiazol-2-yl)phenoxy)ethoxy)ethoxy)ethoxy)ethan-1-ol]
- Stability of crystal form (conversion on storage, air exposure or drying) ([4]; listed as Form V): converted to Form I upon vacuum drying at ˜50 °C

SMILES: OCCOCCOCCOCCOc1ccc(-c2nc3ccccc3s2)cc1 [Compound I Form III, 2-(2-(2-(2-(4-(benzo[d]thiazol-2-yl)phenoxy)ethoxy)ethoxy)ethoxy)ethan-1-ol]
- Stability of crystal form (conversion on storage, air exposure or drying) ([4]; listed as Form III): quickly converted to Form I upon exposure to open air
